Bounds are passed on as bounds.

Experimental findings from ChEMBL document CHEMBL5291721, “A preclinical secondary pharmacology resource illuminates target-adverse drug reaction associations of marketed drugs” (Nat Commun, 2023) are described below.

In experiment [1] the target is T1, Alpha-2A adrenergic receptor (Homo sapiens, UniProt P08913).
T1 sequence (P08913 whole entry): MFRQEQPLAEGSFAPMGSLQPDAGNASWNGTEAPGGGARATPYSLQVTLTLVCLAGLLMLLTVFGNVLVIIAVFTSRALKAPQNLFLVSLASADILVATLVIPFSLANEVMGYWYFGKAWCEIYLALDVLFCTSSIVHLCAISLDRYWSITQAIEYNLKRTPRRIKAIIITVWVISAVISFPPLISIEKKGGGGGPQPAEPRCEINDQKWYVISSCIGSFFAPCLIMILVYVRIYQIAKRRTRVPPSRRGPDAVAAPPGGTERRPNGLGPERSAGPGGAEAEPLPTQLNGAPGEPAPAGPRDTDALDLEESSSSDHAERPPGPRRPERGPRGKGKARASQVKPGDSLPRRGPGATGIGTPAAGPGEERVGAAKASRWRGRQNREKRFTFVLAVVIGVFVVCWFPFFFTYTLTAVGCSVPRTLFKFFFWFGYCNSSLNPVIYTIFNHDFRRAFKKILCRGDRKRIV
The class given is functional, cell-based.

The target in experiment [2] is T2, Cholecystokinin receptor type A (Homo sapiens, UniProt P32238).
T2 sequence (P32238 whole entry): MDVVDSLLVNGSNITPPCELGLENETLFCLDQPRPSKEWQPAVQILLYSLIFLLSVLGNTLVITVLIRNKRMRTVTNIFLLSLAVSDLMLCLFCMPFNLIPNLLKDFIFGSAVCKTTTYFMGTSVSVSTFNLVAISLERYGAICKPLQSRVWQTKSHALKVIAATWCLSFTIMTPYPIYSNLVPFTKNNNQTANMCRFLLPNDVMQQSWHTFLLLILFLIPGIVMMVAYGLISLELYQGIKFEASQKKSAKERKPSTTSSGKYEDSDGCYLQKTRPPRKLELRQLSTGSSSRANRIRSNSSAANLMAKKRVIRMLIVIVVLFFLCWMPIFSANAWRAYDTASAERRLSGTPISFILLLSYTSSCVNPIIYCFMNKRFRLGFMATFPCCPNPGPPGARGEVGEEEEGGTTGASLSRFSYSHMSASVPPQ

In experiment [3] the target is Muscarinic acetylcholine receptor M3 (Homo sapiens, UniProt P20309).
Experiment [4] addresses Glutamate receptor ionotropic, NMDA 1 (Rattus norvegicus, UniProt P35439).
The target of experiment [5] is T3, 5-hydroxytryptamine receptor 1A (Homo sapiens, UniProt P08908).
T3 sequence (P08908 whole entry): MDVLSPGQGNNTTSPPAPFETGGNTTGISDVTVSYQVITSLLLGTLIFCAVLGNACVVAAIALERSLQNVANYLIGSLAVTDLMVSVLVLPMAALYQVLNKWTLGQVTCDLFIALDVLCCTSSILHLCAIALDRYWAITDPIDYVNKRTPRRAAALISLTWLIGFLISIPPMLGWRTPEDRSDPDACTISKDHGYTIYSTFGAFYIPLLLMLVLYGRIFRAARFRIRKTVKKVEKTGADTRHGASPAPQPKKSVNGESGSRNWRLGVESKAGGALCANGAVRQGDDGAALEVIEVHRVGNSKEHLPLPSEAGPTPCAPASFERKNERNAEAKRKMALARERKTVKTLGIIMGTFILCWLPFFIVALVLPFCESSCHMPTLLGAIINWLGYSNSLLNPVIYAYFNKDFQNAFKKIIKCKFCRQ
It is filed as functional, cell-based.

For the next experiment, the target named is Melanocortin receptor 3 (Homo sapiens, UniProt P41968).
A further experiment addresses Motilin receptor (Homo sapiens, UniProt O43193).
The target of experiment [6] is T4, Neuropeptide Y receptor type 1 (Homo sapiens, UniProt P25929).
T4 sequence (P25929 whole entry): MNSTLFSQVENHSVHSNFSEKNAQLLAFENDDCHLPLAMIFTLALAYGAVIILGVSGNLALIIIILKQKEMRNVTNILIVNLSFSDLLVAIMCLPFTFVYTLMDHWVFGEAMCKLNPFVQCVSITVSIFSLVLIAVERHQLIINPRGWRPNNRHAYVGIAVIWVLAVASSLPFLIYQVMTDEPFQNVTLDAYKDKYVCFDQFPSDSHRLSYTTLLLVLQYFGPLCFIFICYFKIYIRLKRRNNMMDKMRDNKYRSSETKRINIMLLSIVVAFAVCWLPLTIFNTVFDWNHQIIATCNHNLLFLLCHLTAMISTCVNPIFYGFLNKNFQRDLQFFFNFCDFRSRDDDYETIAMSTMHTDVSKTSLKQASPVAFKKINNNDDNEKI

The target of experiment [7] is 3',5'-cyclic-AMP phosphodiesterase 4D (Homo sapiens, UniProt Q08499). It is filed as functional.
In experiment [8] the target is T5, Gastrin/cholecystokinin type B receptor (Homo sapiens, UniProt P32239).
T5 sequence (P32239 whole entry): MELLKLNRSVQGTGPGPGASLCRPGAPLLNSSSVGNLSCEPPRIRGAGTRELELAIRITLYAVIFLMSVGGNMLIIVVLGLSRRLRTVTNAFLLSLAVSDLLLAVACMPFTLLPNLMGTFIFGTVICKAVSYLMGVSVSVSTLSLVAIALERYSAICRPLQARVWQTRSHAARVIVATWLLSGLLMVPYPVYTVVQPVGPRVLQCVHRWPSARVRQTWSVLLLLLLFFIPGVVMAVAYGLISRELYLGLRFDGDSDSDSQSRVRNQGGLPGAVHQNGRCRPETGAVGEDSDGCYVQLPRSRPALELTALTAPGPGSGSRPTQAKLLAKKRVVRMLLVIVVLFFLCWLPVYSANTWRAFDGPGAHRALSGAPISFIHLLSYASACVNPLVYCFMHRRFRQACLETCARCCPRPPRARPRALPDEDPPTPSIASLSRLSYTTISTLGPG
Note: assay procedure not described here.

Sequence of Muscarinic acetylcholine receptor M3 (P20309 whole entry): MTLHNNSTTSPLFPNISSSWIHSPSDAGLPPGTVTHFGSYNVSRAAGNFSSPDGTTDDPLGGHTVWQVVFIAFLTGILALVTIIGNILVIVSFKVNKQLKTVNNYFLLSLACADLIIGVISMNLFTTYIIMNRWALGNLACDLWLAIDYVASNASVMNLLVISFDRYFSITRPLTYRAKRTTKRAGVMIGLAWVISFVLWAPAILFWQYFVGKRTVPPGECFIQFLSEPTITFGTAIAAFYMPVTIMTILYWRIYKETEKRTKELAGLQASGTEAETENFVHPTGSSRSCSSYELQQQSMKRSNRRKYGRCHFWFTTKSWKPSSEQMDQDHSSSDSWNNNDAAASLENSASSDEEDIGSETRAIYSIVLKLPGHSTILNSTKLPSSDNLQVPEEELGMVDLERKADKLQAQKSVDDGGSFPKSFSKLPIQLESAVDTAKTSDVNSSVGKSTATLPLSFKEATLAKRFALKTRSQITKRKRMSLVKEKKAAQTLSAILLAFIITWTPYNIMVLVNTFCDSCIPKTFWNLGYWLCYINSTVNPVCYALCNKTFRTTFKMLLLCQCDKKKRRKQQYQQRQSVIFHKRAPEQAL
Sequence of Motilin receptor (O43193 whole entry): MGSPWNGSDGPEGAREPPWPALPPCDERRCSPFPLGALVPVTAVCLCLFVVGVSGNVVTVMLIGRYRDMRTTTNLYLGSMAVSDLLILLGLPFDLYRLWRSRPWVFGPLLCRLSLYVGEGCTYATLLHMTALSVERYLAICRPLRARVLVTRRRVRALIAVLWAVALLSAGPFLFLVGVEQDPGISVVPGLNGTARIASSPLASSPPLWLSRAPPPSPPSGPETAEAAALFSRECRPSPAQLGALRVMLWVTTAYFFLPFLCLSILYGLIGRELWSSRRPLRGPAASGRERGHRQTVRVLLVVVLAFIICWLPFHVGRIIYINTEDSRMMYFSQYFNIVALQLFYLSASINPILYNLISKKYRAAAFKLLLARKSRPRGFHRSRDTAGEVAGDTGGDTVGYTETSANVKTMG
Sequence of 3',5'-cyclic-AMP phosphodiesterase 4D (Q08499 whole entry): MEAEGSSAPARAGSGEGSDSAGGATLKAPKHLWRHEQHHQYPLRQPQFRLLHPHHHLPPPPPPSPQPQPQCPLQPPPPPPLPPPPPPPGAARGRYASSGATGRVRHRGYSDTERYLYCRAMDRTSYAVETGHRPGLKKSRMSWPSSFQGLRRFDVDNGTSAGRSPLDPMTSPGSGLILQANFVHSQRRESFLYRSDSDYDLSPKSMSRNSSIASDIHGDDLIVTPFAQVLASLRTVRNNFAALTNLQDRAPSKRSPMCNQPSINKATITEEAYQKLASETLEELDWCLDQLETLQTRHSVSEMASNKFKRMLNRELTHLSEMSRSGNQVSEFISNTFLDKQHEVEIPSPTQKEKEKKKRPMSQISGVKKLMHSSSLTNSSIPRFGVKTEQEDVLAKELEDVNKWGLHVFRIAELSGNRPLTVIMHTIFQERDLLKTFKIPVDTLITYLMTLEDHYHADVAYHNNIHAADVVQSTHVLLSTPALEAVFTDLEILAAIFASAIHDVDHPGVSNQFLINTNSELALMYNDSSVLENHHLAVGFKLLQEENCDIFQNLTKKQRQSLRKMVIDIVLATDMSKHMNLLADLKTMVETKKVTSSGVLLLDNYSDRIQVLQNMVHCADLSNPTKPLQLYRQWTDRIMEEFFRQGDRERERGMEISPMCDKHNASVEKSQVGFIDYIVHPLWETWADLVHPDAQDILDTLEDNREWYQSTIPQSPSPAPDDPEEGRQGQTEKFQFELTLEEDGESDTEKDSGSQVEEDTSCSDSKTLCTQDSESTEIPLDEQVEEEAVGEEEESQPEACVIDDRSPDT
Sequence of Melanocortin receptor 3 (P41968 whole entry): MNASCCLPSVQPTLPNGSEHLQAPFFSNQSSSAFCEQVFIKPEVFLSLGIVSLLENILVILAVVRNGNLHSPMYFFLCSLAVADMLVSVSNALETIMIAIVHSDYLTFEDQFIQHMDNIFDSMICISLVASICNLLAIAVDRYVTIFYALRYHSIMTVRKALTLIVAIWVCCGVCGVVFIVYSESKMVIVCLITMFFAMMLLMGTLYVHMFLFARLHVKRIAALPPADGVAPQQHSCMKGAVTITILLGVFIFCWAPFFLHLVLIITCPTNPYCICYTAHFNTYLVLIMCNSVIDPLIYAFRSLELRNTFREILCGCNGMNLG

Consider `NS(=O)(=O)c1cc2c(cc1C(F)(F)F)NC(Cc1ccccc1)NS2(=O)=O` (stereo unspecified) [BENDROFLUMETHIAZIDE], for which the half-maximal activity concentration (AC50) (as a rule, the midpoint of the concentration-response curve, whichever way the signal moves) in experiment [1] was over 10 µM; in experiment [2], over 10 µM; in experiment [3], over 30 µM; in experiment [4], over 10 µM; in experiment [5], over 10 µM; on Melanocortin receptor 3, over 10 µM. In addition, the half-maximal activity concentration (AC50) at Motilin receptor was over 10 µM; in [6], over 10 µM; in [7] it was over 30 µM.

On to `CC(C)c1cc2c(cc1S(=O)(=O)O)[C@@]1(C)CCC[C@@](C)(C(=O)O)[C@@H]1CC2` [ECABET], for which the concentration at half-maximal activity (AC50) (in experiment [1]; in experiment [2]; in [8]; in experiment [3]; in experiment [4]; at Melanocortin receptor 3) was over 30 µM each time. Also, the AC50 (on Motilin receptor; in experiment [6]; in experiment [7]) was over 30 µM throughout.

Consider `CCCN(CC)C(CC)C(=O)Nc1c(C)cccc1C` (stereo unspecified) [ETIDOCAINE], for which the AC50 (in experiment [1]; in [2]; in [8]; in experiment [3]; in [4]; at Melanocortin receptor 3) was over 30 µM each time. Also, the AC50 (at Motilin receptor; in experiment [6]; in [7]) was over 30 µM throughout.

Regarding `Clc1ccc(C(Cn2ccnc2)OCc2ccc(Sc3ccccc3)cc2)c(Cl)c1` (stereo unspecified) [FENTICONAZOLE], the AC50 in experiment [1] was over 30 µM; in experiment [2], over 30 µM; in experiment [8], over 30 µM; in experiment [3] it was 21 µM; in experiment [4] it was over 30 µM; on Melanocortin receptor 3, 21 µM. The half-maximal activity concentration (AC50) at Motilin receptor was found to be 23 µM; in experiment [6], 30 µM; in experiment [7], 18 µM.

For `CC#CCn1c(N2CCC[C@@H](N)C2)nc2c1c(=O)n(Cc1nc(C)c3ccccc3n1)c(=O)n2C` [LINAGLIPTIN], the AC50 in experiment [1] was over 10 µM; in experiment [2], over 30 µM; in experiment [8], over 30 µM; in experiment [3], 6.5 µM; in experiment [4], over 10 µM; at Melanocortin receptor 3, over 30 µM. Moreover, the figures for the concentration at half-maximal activity (AC50) (at Motilin receptor; in experiment [6]; in experiment [7]) were over 10 µM, over 30 µM and over 10 µM, respectively.

In the case of `CC(C)OC(=O)C(C(=O)OC(C)C)=C1SC=CS1` [MALOTILATE], the AC50 (in experiment [1]; in [2]; in experiment [8]; in [3]; in [4]; on Melanocortin receptor 3) was over 30 µM in each case. Besides, the AC50 at Motilin receptor was over 30 µM; in [6], over 30 µM; in experiment [7] it was 4.2 µM.

Turning to `CN(c1nccc(=O)[nH]1)C1CCN(c2nc3ccccc3n2Cc2ccc(F)cc2)CC1` [MIZOLASTINE], the AC50 (in experiment [1]; in [2]; in [8]; in experiment [3]; in [4]; on Melanocortin receptor 3) was over 30 µM throughout. In addition, the concentration at half-maximal activity (AC50) at Motilin receptor is over 30 µM; in experiment [6], over 30 µM; in [7] it was 13 µM.

Regarding `CCOC(=O)Nc1ccc2c(c1)N(C(=O)CCN1CCOCC1)c1ccccc1S2` [MORICIZINE], the AC50 (in experiment [1]; in experiment [2]; in experiment [8]; in experiment [3]; in experiment [4]; at Melanocortin receptor 3) was over 30 µM throughout. The AC50 was over 30 µM on Motilin receptor, over 30 µM in experiment [6] and 0.77 µM in [7].

Consider `CCN(CC)CC(=O)Oc1ccc(NC(C)=O)cc1` [PROPACETAMOL], for which the concentration at half-maximal activity (AC50) (in experiment [1]; in [2]; in experiment [8]; in experiment [3]; in experiment [4]; at Melanocortin receptor 3) was over 30 µM each time. In addition, the half-maximal activity concentration (AC50) (on Motilin receptor; in experiment [6]; in experiment [7]) was over 30 µM throughout.

`CCCOC(C(=O)OC1CCN(C)CC1)(c1ccccc1)c1ccccc1` [PROPIVERINE]: the AC50 in [1] was over 30 µM; in [2], over 30 µM; in [8] it was over 30 µM; in [3] it was 0.83 µM; in experiment [4], over 30 µM; on Melanocortin receptor 3, over 30 µM. Further, the results for the AC50 (on Motilin receptor; in experiment [6]; in experiment [7]) were 15 µM, over 30 µM and over 30 µM, respectively.

For `Cc1ccc2c(-c3ccccc3)nc(=O)n(C(C)C)c2c1` [PROQUAZONE], the concentration at half-maximal activity (AC50) (in experiment [1]; in experiment [2]; in [8]; in [3]; in experiment [4]; on Melanocortin receptor 3) was over 30 µM throughout. The half-maximal activity concentration (AC50) is over 30 µM at Motilin receptor, over 30 µM in experiment [6] and 0.81 µM in experiment [7].

On to `CN1CCN(c2c(F)cc3c(=O)c(C(=O)O)cn4c3c2SCC4)CC1` [RUFLOXACIN], for which the AC50 (in experiment [1]; in [2]; in experiment [8]; in [3]; in [4]; at Melanocortin receptor 3) was over 30 µM throughout. The AC50 (at Motilin receptor; in experiment [6]; in experiment [7]) was over 30 µM each time.

Regarding `COc1cc2c(Nc3ccc(Br)cc3F)ncnc2cc1OCC1CCN(C)CC1` [VANDETANIB], the concentration at half-maximal activity (AC50) in [1] is over 30 µM; in experiment [2], over 10 µM; in experiment [8] it was over 10 µM; in experiment [3] it was 24 µM; in experiment [4] it was over 30 µM; at Melanocortin receptor 3, over 30 µM. Besides, the AC50 (at Motilin receptor; in experiment [6]; in [7]) was over 30 µM each time.

With `N#C[C@@H]1CCCN1C(=O)CNC12CC3CC(CC(O)(C3)C1)C2` [VILDAGLIPTIN], the half-maximal activity concentration (AC50) (in experiment [1]; in [2]; in experiment [8]; in experiment [3]; in experiment [4]; at Melanocortin receptor 3) was over 30 µM each time. Further, the concentration at half-maximal activity (AC50) on Motilin receptor is over 10 µM; in [6], over 30 µM; in experiment [7], over 30 µM.

Consider COLISTIN, for which the half-maximal activity concentration (AC50) in experiment [1], in experiment [3], in experiment [4], in [5] and in experiment [7] was over 30 µM each time.
